# Laboratory results from ChEMBL document CHEMBL3885861, “Open TG-GATES”.
# Organism: Rattus norvegicus
# Experiment: Open TG-GATES - Regimen: Single
# Type: toxicity, organism-based, Sprague-Dawley
# Set-up: regimen Single, gender Male, age 6 weeks
# Details: in vivo, po, route gavage; for gamma-GTP / ALP / ALT / AST / CRE / Ca / Cl / DBIL / GLC / IP / K / LDH / Na / PL / RALB / TBIL / TC / TG / TP / BUN: tissue Plasma; for Bas / Eos / Fbg / Hb / Ht / Lym / MCH / MCHC / MCV / Mono / PT / Plat / RBC / Ret / WBC / APTT / Neu: tissue Blood; for KIDNEY_L / KIDNEY_R / KIDNEY_TOTAL: tissue Kidney; for LIVER: tissue Liver
# [1] = 100 mg/kg, 24 h, dose level Low
structure (smiles),measurement,setting,value
COC(=O)C1=C(C)NC(C)=C(C(=O)OC)C1c1ccccc1[N+](=O)[O-] [NIFEDIPINE],gamma-GTP,"0 mg/kg, 24 h, dose level Control",1 IU/L
same,TERMINAL_BW,"100 mg/kg, 3 h, dose level Low",201.3 g
same,Bas,"100 mg/kg, 3 h, dose level Low",0%
same,Eos,"100 mg/kg, 3 h, dose level Low",1%
same,Fbg,"100 mg/kg, 3 h, dose level Low",279.6 mg/dL
same,Hb,"100 mg/kg, 3 h, dose level Low",12.9 g/dL
same,Ht,"100 mg/kg, 3 h, dose level Low",39.2%
same,Lym,"100 mg/kg, 3 h, dose level Low",71.8%
same,MCH,"100 mg/kg, 3 h, dose level Low",20.6 pg
same,MCHC,"100 mg/kg, 3 h, dose level Low",32.8%
same,MCV,"100 mg/kg, 3 h, dose level Low",62.6 fL
same,Mono,"100 mg/kg, 3 h, dose level Low",4.4%
same,PT,"100 mg/kg, 3 h, dose level Low",14.9 s
same,Plat,"100 mg/kg, 3 h, dose level Low",123.6 x10_4/uL
same,RBC,"100 mg/kg, 3 h, dose level Low",625.8 x10_4/ul
same,Ret,"100 mg/kg, 3 h, dose level Low",9.3%
same,WBC,"100 mg/kg, 3 h, dose level Low",127.1 x10_2/uL
same,KIDNEY_L,"100 mg/kg, 3 h, dose level Low",0.9 g
same,KIDNEY_R,"100 mg/kg, 3 h, dose level Low",0.9 g
same,KIDNEY_TOTAL,"100 mg/kg, 3 h, dose level Low",1.8 g
same,LIVER,"100 mg/kg, 3 h, dose level Low",7.9 g
same,ALP,"100 mg/kg, 3 h, dose level Low",1399 IU/L
same,ALT,"100 mg/kg, 3 h, dose level Low",44.8 IU/L
same,AST,"100 mg/kg, 3 h, dose level Low",78.6 IU/L
same,CRE,"100 mg/kg, 3 h, dose level Low",0.3 mg/dL
same,Ca,"100 mg/kg, 3 h, dose level Low",11.7 mg/dL
same,Cl,"100 mg/kg, 3 h, dose level Low",98.2 meq/L
same,DBIL,"100 mg/kg, 3 h, dose level Low",0.01 mg/dL
same,GLC,"100 mg/kg, 3 h, dose level Low",227.6 mg/dL
same,IP,"100 mg/kg, 3 h, dose level Low",9 mg/dL
same,K,"100 mg/kg, 3 h, dose level Low",4.7 meq/L
same,LDH,"100 mg/kg, 3 h, dose level Low",89.4 IU/L
same,Na,"100 mg/kg, 3 h, dose level Low",135.6 meq/L
same,PL,"100 mg/kg, 3 h, dose level Low",132 mg/dL
same,RALB,"100 mg/kg, 3 h, dose level Low",2.5 g/dL
same,TBIL,"100 mg/kg, 3 h, dose level Low",0.042 mg/dL
same,TC,"100 mg/kg, 3 h, dose level Low",76.2 mg/dL
same,TG,"100 mg/kg, 3 h, dose level Low",31.6 mg/dL
same,TP,"100 mg/kg, 3 h, dose level Low",5.3 g/dL
same,gamma-GTP,"100 mg/kg, 3 h, dose level Low",1.2 IU/L
same,TERMINAL_BW,"100 mg/kg, 6 h, dose level Low",203.8 g
same,APTT,"100 mg/kg, 6 h, dose level Low",16.8 s
same,Bas,"100 mg/kg, 6 h, dose level Low",0%
same,Eos,"100 mg/kg, 6 h, dose level Low",0.4%
same,Fbg,"100 mg/kg, 6 h, dose level Low",278.2 mg/dL
same,Hb,"100 mg/kg, 6 h, dose level Low",12.8 g/dL
same,Ht,"100 mg/kg, 6 h, dose level Low",39.2%
same,Lym,"100 mg/kg, 6 h, dose level Low",76.2%
same,MCH,"100 mg/kg, 6 h, dose level Low",20.2 pg
same,MCHC,"100 mg/kg, 6 h, dose level Low",32.6%
same,MCV,"100 mg/kg, 6 h, dose level Low",61.7 fL
same,Mono,"100 mg/kg, 6 h, dose level Low",3.6%
same,Neu,"100 mg/kg, 6 h, dose level Low",18.6%
same,PT,"100 mg/kg, 6 h, dose level Low",15 s
same,Plat,"100 mg/kg, 6 h, dose level Low",124 x10_4/uL
same,RBC,"100 mg/kg, 6 h, dose level Low",634.8 x10_4/ul
same,Ret,"100 mg/kg, 6 h, dose level Low",9.2%
same,WBC,"100 mg/kg, 6 h, dose level Low",96.4 x10_2/uL
same,KIDNEY_L,"100 mg/kg, 6 h, dose level Low",0.9 g
same,KIDNEY_R,"100 mg/kg, 6 h, dose level Low",0.9 g
same,KIDNEY_TOTAL,"100 mg/kg, 6 h, dose level Low",1.7 g
same,LIVER,"100 mg/kg, 6 h, dose level Low",7.8 g
same,ALP,"100 mg/kg, 6 h, dose level Low",1423.2 IU/L
same,ALT,"100 mg/kg, 6 h, dose level Low",54.6 IU/L
same,AST,"100 mg/kg, 6 h, dose level Low",82.2 IU/L
same,BUN,"100 mg/kg, 6 h, dose level Low",32.4 mg/dL
same,CRE,"100 mg/kg, 6 h, dose level Low",0.2 mg/dL
same,Ca,"100 mg/kg, 6 h, dose level Low",11.3 mg/dL
same,Cl,"100 mg/kg, 6 h, dose level Low",98.6 meq/L
same,DBIL,"100 mg/kg, 6 h, dose level Low",0.01 mg/dL
same,GLC,"100 mg/kg, 6 h, dose level Low",220.6 mg/dL
same,IP,"100 mg/kg, 6 h, dose level Low",10.7 mg/dL
same,K,"100 mg/kg, 6 h, dose level Low",5.2 meq/L
same,LDH,"100 mg/kg, 6 h, dose level Low",72.8 IU/L
same,Na,"100 mg/kg, 6 h, dose level Low",135.8 meq/L
same,PL,"100 mg/kg, 6 h, dose level Low",141.2 mg/dL
same,RALB,"100 mg/kg, 6 h, dose level Low",2.6 g/dL
same,TBIL,"100 mg/kg, 6 h, dose level Low",0.042 mg/dL
same,TC,"100 mg/kg, 6 h, dose level Low",86.4 mg/dL
same,TG,"100 mg/kg, 6 h, dose level Low",20.8 mg/dL
same,TP,"100 mg/kg, 6 h, dose level Low",5.5 g/dL
same,gamma-GTP,"100 mg/kg, 6 h, dose level Low",1.2 IU/L
same,TERMINAL_BW,"100 mg/kg, 9 h, dose level Low",204.8 g
same,APTT,"100 mg/kg, 9 h, dose level Low",15.8 s
same,Bas,"100 mg/kg, 9 h, dose level Low",0%
same,Eos,"100 mg/kg, 9 h, dose level Low",0.6%
same,Fbg,"100 mg/kg, 9 h, dose level Low",292.2 mg/dL
same,Hb,"100 mg/kg, 9 h, dose level Low",12.7 g/dL
same,Ht,"100 mg/kg, 9 h, dose level Low",38.7%
same,Lym,"100 mg/kg, 9 h, dose level Low",80.2%
same,MCH,"100 mg/kg, 9 h, dose level Low",20.8 pg
same,MCHC,"100 mg/kg, 9 h, dose level Low",32.9%
same,MCV,"100 mg/kg, 9 h, dose level Low",63.3 fL
same,Mono,"100 mg/kg, 9 h, dose level Low",2.8%
same,Neu,"100 mg/kg, 9 h, dose level Low",14.8%
same,PT,"100 mg/kg, 9 h, dose level Low",14.6 s
same,Plat,"100 mg/kg, 9 h, dose level Low",127.7 x10_4/uL
same,RBC,"100 mg/kg, 9 h, dose level Low",610.8 x10_4/ul
same,Ret,"100 mg/kg, 9 h, dose level Low",9.7%
same,WBC,"100 mg/kg, 9 h, dose level Low",116.7 x10_2/uL
same,KIDNEY_L,"100 mg/kg, 9 h, dose level Low",0.9 g
same,KIDNEY_R,"100 mg/kg, 9 h, dose level Low",0.9 g
same,KIDNEY_TOTAL,"100 mg/kg, 9 h, dose level Low",1.7 g
same,LIVER,"100 mg/kg, 9 h, dose level Low",7.4 g
same,ALP,"100 mg/kg, 9 h, dose level Low",1305.6 IU/L
same,ALT,"100 mg/kg, 9 h, dose level Low",46.4 IU/L
same,AST,"100 mg/kg, 9 h, dose level Low",75.6 IU/L
same,BUN,"100 mg/kg, 9 h, dose level Low",17.8 mg/dL
same,CRE,"100 mg/kg, 9 h, dose level Low",0.2 mg/dL
same,Ca,"100 mg/kg, 9 h, dose level Low",10.9 mg/dL
same,Cl,"100 mg/kg, 9 h, dose level Low",102 meq/L
same,DBIL,"100 mg/kg, 9 h, dose level Low",0.008 mg/dL
same,GLC,"100 mg/kg, 9 h, dose level Low",178.6 mg/dL
same,IP,"100 mg/kg, 9 h, dose level Low",10.8 mg/dL
same,K,"100 mg/kg, 9 h, dose level Low",4.6 meq/L
same,LDH,"100 mg/kg, 9 h, dose level Low",76 IU/L
same,Na,"100 mg/kg, 9 h, dose level Low",138.6 meq/L
same,PL,"100 mg/kg, 9 h, dose level Low",152 mg/dL
same,RALB,"100 mg/kg, 9 h, dose level Low",2.6 g/dL
same,TBIL,"100 mg/kg, 9 h, dose level Low",0.046 mg/dL
same,TC,"100 mg/kg, 9 h, dose level Low",90.6 mg/dL
same,TG,"100 mg/kg, 9 h, dose level Low",28.2 mg/dL
same,TP,"100 mg/kg, 9 h, dose level Low",5.4 g/dL
same,gamma-GTP,"100 mg/kg, 9 h, dose level Low",1.2 IU/L
same,TERMINAL_BW,[1],206.2 g
same,APTT,[1],16.5 s
same,Bas,[1],0%
same,Eos,[1],1%
same,Fbg,[1],267.8 mg/dL
same,Hb,[1],13 g/dL
same,Ht,[1],40.5%
same,Lym,[1],65.6%
same,MCH,[1],20.8 pg
same,MCHC,[1],32.2%
same,MCV,[1],64.5 fL
same,Mono,[1],3.8%
same,Neu,[1],29%
same,PT,[1],13.9 s
same,Plat,[1],133.1 x10_4/uL
same,RBC,[1],629 x10_4/ul
same,Ret,[1],8.8%
same,WBC,[1],87.9 x10_2/uL
same,KIDNEY_L,[1],0.9 g
same,KIDNEY_R,[1],0.9 g
same,KIDNEY_TOTAL,[1],1.8 g
same,LIVER,[1],9.3 g
same,ALP,[1],2046.4 IU/L
same,ALT,[1],44.4 IU/L
same,AST,[1],70.8 IU/L
same,BUN,[1],14.6 mg/dL
same,CRE,[1],0.2 mg/dL
same,Ca,[1],10.6 mg/dL
same,Cl,[1],109.4 meq/L
same,DBIL,[1],0.016 mg/dL
same,GLC,[1],177 mg/dL
same,IP,[1],7.4 mg/dL
same,K,[1],4.4 meq/L
same,LDH,[1],82.6 IU/L
same,Na,[1],146 meq/L
same,PL,[1],132.8 mg/dL
same,RALB,[1],2.6 g/dL
same,TBIL,[1],0.03 mg/dL
same,TC,[1],68.4 mg/dL
same,TG,[1],87.8 mg/dL
same,TP,[1],5.5 g/dL
same,gamma-GTP,[1],1.2 IU/L
same,TERMINAL_BW,"300 mg/kg, 3 h, dose level Middle",203.9 g
